Assay results published in US12065434B2, “Metabolites of GLP1R agonists” (Pfizer Inc., priority 2020, dated 2024).

What was measured:
[1] = Circulating metabolites of Compound 2 in rat plasma following a 1.0 mg/kg IV bolus dose; format: in vivo; conditions: 1.0 mg/kg IV bolus dose of Compound 2, pooled 0.033-24 hrs
Experimental: Plasma and bile samples were obtained from a bile duct cannulated rat experiment (Study PK-0111) in which a 1.0 mg/kg IV bolus dose was administered to fed male rats (N=3). No control plasma was available from this experiment.
Clin Pharmacol Ther 1981; 29(3):408-13]. The entire volume of each replicate Hamilton pool was combined to create a single pooled sample (576 μL) for analysis.
Pooled plasma and bile samples were extracted with ACN containing 0.1% formic acid, and after centrifugation at 1900×g, the supernatant was transferred to clean tubes and evaporated under N2 in a Turbovap set at 37° C. Residues were reconstituted in mobile phase (5:95 v:v ACN:0.1% aqueous formic acid) prior to analysis by HPLC/UV/MS^n.
(§1) Samples were analyzed by HPLC/UV/MS^n using a Thermo Orbitrap Elite mass spectrometer in conjunction with a Thermo Open Accela UHPLC system. A 3.0×150 mm, 2.5 μm Acquity CSH C18 HPLC column (Waters) was heated to 45° C. for separation of analytes. The mobile phase was a gradient of A): water containing 0.1% formic acid, and B): acetonitrile. The flow rate was 450 μL/min, and the following gradient program was utilized: […]
(§2) UV absorbance was monitored with a photo-diode array detector from 220-450 nm. The mass spectrometer was operated in positive-ion mode with a HESI ion source at a potential of 3.0 kV, and capillary and source heater temperatures of 380 and 300° C., respectively. Sheath, auxiliary, and sweep gas flows were set to 45, 10, and 2 units, respectively. Full scan mass spectra were acquired over the range 120-1200 m/z at a resolving power of 30,000 (specified at m/z 400). Data-dependent MS^n spectra were acquired in an automated fashion at 15,000 resolving power using CID and HCD fragmentation with normalized collision energy settings of 28 and 65 V, respectively.
(§3) Metabolites were characterized by comparisons of mass spectral fragmentation patterns with that of a Compound 2 standard. All HPLC/UV/MS^n data were processed using Xcalibur v. 2.2, and integrated UV peak areas were subjected to weighted UV binning procedures utilizing an Excel template.

human hepatocytes = assay: In vitro metabolism of Compound 2 in human cryopreserved hepatocytes; format: in vitro ADME; set-up: key to Relative abundance of metabolite of Compound 2, Human: ND Not detected.; trace: Trace: observed by HPLC/MS measurements only.; + Minor as assessed by HPLC/UV measurements; ++ moderate as assessed by HPLC/UV measurements; +++ major as assessed by HPLC/UV measurements.; * m/z 593 and m/z 505 co-eluted in rabbit hepatocytes.; ** m/z 591 c and m/z 593 were merged in human hepatocytes and Hepatopack.; *** m/z 607 and m/z 751 b were merged in rabbit hepatocytes; conditions: for metabolite of Compound 2 observed in human hepatocyte incubations: 10 μM Compound 2, 7.5×10^5 cells/mL, 1 and 4 hrs composite
Experimental: (§4) Male CD-1 mouse hepatocytes (lot YHL), male Wistar-Han rat hepatocytes (Celsius; product number: M000065; lot: SLA), female New Zealand rabbit hepatocytes (lot 1510147), male cryopreserved cynomolgus monkey hepatocytes (Celsius; product number: M00305; lot: DNB) and mixed-gender cryopreserved human hepatocytes (Bioreclamation; product number: S01988; lot: DCM) were obtained for the hepatocyte in-vitro assessments.
(§5) At time 0 hrs 550 μL aliquots were removed from incubations and quenched with 5 volumes of ACN containing 0.1% formic acid. At 1 and 4 hrs, 275 μL aliquots were removed and quenched as above; these were combined in the same tube to prepare a composite sample. For all hepatocyte experiments, samples were processed by centrifugation at 1900×g for 5 minutes, and then the supernatant was transferred to clean glass tubes and evaporated to dryness under a stream of N2 using a Turbovap at 37° C. Sample residues were reconstituted in mobile phase prior to analysis by HPLC/UV/MS^n.
as §1, §2, §3

rabbit hepatocytes = assay: In vitro metabolism of Compound 2 in rabbit cryopreserved hepatocytes; format: in vitro ADME; set-up: key to Relative abundance of metabolite of Compound 2, Rabbit: ND Not detected.; trace: Trace: observed by HPLC/MS measurements only.; + Minor as assessed by HPLC/UV measurements; ++ moderate as assessed by HPLC/UV measurements; +++ major as assessed by HPLC/UV measurements.; * m/z 593 and m/z 505 co-eluted in rabbit hepatocytes.; ** m/z 591 c and m/z 593 were merged in human hepatocytes and Hepatopack.; *** m/z 607 and m/z 751 b were merged in rabbit hepatocytes; conditions: for metabolite of Compound 2 observed in rabbit hepatocyte incubations: 10 μM Compound 2, 7.5×10^5 cells/mL, 1 and 4 hrs composite
Experimental: as §4, §5, §1, §2, §3

rat hepatocytes = assay: In vitro metabolism of Compound 2 in rat cryopreserved hepatocytes; format: in vitro ADME; set-up: key to Relative abundance of metabolite of Compound 2, Rat: ND Not detected.; trace: Trace: observed by HPLC/MS measurements only.; + Minor as assessed by HPLC/UV measurements; ++ moderate as assessed by HPLC/UV measurements; +++ major as assessed by HPLC/UV measurements.; * m/z 593 and m/z 505 co-eluted in rabbit hepatocytes.; ** m/z 591 c and m/z 593 were merged in human hepatocytes and Hepatopack.; *** m/z 607 and m/z 751 b were merged in rabbit hepatocytes; conditions: for metabolite of Compound 2 observed in rat hepatocyte incubations: 10 μM Compound 2, 7.5×10^5 cells/mL, 1 and 4 hrs composite
Experimental: as §4, §5, §1, §2, §3

human GLP-1R = molecular target: T1, human GLP-1R (Homo sapiens, UniProt P43220, L260F); assay: CHO GLP-1R Clone C6 - Assay 2 (HTRF cAMP agonist assay, low receptor density); format: cell-based; conditions: CHO GLP-1R Clone C6 (low receptor density), arithmetic mean, relative to 1 μM GLP-1
T1 construct: expressed in transfected cells
T1 sequence (P43220 24-463 L260F): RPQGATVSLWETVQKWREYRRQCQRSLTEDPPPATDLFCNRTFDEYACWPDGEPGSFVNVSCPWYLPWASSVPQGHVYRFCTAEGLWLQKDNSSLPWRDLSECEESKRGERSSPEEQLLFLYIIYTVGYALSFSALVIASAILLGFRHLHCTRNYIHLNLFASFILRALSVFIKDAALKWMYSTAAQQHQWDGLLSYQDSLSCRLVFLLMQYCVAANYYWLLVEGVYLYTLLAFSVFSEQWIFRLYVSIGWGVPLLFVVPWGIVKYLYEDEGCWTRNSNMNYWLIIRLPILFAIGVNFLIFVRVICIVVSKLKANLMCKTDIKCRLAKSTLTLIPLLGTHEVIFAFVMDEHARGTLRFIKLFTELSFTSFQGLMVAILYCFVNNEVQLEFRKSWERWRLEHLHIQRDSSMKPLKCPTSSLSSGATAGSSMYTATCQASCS
Experimental: GLP-1R-mediated agonist activity was determined with a cell-based functional assay utilizing an HTRF (Homogeneous Time-Resolved Fluorescence) cAMP detection kit (cAMP HI Range Assay Kit; Cis Bio cat #62AM6PEJ) that measures cAMP levels in the cell. The method is a competitive immunoassay between native cAMP produced by the cells and exogenous cAMP labeled with the dye d2. The tracer binding is visualized by a mAb anti-cAMP labeled with Cryptate. The specific signal (i.e. energy transfer) is inversely proportional to the concentration of cAMP in either a standard or an experimental sample.
The human GLP-1R coding sequence (NCBI Reference Sequence NP_002053.3, including naturally-occurring variant Leu260Phe) was subcloned into pcDNA5-FRT-TO and a clonal CHO cell line stably expressing a low receptor density was isolated using the Flp-In™ T-Rex™ System, as described by the manufacturer (ThermoFisher).
Cells were removed from cryopreservation, re-suspended in 40 mL of Dulbecco's Phosphate Buffered Saline (DPBS—Lonza Cat #17-512Q) and centrifuged at 800×g for 5 minutes at 22° C. The DPBS was aspirated, and the cell pellet was re-suspended in 10 mL of complete growth medium (DMEM:F12 1:1 Mixture with HEPES, L-Gln, 500 mL (DMEM/F12 Lonza Cat #12-719F), 10% heat inactivated fetal bovine serum (Gibco Cat #16140-071), 5 mL of 100× Pen-Strep (Gibco Cat #15140-122), 5 mL of 100× L-Glutamine (Gibco Cat #25030-081), 700 μg/mL Hygromycin (Invitrogen Cat #10687010) and 15 μg/mL Blasticidin (Gibco Cat #R21001). A 1 mL sample of the cell suspension in growth media was counted on a Becton Dickinson ViCell to determine cell viability and cell count per mL. The remaining cell suspension was then adjusted with growth media to deliver 1600 viable cells per well using a Matrix Combi Multidrop reagent dispenser, and the cells were dispensed into a white 384 well tissue culture treated assay plate (Corning 3570). The assay plate was then incubated for 48 hours at 37° C. in a humidified environment (95% O2, 5% CO2)
Varying concentrations of each compound to be tested (in DMSO) were diluted in assay buffer [HBSS with Calcium/Magnesium (Lonza/BioWhittaker cat #10-527F)/0.1% BSA (Sigma Aldrich cat #A7409-1L)/20 mM HEPES (Lonza/BioWhittaker cat #17-737E)] containing 100 μM 3-isobutyl-1-methylxanthin (IBMX; Sigma cat #15879). The final DMSO concentration in the compound/assay buffer mixture is 1%.
After 48 hours, the growth media was removed from the assay plate wells, and the cells were treated with 20 μL of the serially diluted compound in assay buffer for 30 minutes at 37° C. in a humidified environment (95% O2, 5% CO2). Following the 30 minute incubation, 10 μL of labeled d2 cAMP and 10 μL of anti-cAMP antibody (both diluted 1:20 in cell lysis buffer; as described in the manufacturer's assay protocol) were added to each well of the assay plate. The plates were then incubated at room temperature and after 60 minutes, changes in the HTRF signal were read with an Envision 2104 multi-label plate reader using excitation of 330 nm and emissions of 615 and 665 nm. Raw data were converted to nM cAMP by interpolation from a cAMP standard curve (as described in the manufacturer's assay protocol) and the percent effect was determined relative to a saturating concentration of the full agonist GLP-1 (1 μM) included on each plate. EC50 determinations were made from agonist dose response curves analyzed with a curve fitting program using a 4-parameter logistic dose response equation.

detected in rat plasma [1]	detected in rat plasma ([1]; listed as m/z 331)	metabolite of Compound 2 observed in human hepatocyte incubations (human hepatocytes)	Relative abundance of metabolite of Compound 2, Human (human hepatocytes; human cryopreserved hepatocytes, HPLC/UV/MS)	metabolite of Compound 2 observed in rabbit hepatocyte incubations (rabbit hepatocytes)	Relative abundance of metabolite of Compound 2, Rabbit (rabbit hepatocytes; rabbit cryopreserved hepatocytes, HPLC/UV/MS)	metabolite of Compound 2 observed in rat hepatocyte incubations (rat hepatocytes)	Relative abundance of metabolite of Compound 2, Rat (rat hepatocytes; rat cryopreserved hepatocytes, HPLC/UV/MS)	detected in rat plasma ([1]; listed as m/z 751b)	metabolite of Compound 2 observed in human hepatocyte incubations (human hepatocytes; listed as m/z 751b)	Emax (human GLP-1R) [%]	Structure (SMILES)
observed	detected	observed in all hepatocyte incubations	+	observed in all hepatocyte incubations	trace	observed in all hepatocyte incubations	trace				C[C@]1(c2ccc(Cl)cn2)Oc2cccc(C3CCNCC3)c2O1 [Metabolite 331]
observed		observed in all hepatocyte incubations		observed in all hepatocyte incubations		observed in all hepatocyte incubations		detected	most abundant metabolites	68	C[C@]1(c2ccc(Cl)cn2)Oc2cccc(C3CCN(Cc4nc5ccc(C(=O)O[C@@H]6O[C@H](C(=O)O)[C@@H](O)[C@H](O)[C@H]6O)cc5n4C[C@@H]4CCO4)CC3)c2O1 [Metabolite 751b]
